Experimental data from patent US6583170B1, “2-Phenyl-1-[4-(amino-1-yl-alk-1-ynyl)-benzyl]-1H-indol-5-ol and estrogen formulations” (Wyeth, priority 1998, dated 2003).
Values joined by “and” are separate entries in the source; they are usually repeats but may differ in a detail not shown here. Identical values can stand only once.

How the values were obtained:
Ishikawa cells = assay: Ishikawa Cell Alkaline Phosphatase Assay; type: cell-based, human; conditions: compound alone; percent of response related to 1 nM 17β-estradiol; 48 h
Protocol: Ishikawa Cell Alkaline Phosphatase Assay Cell Maintenance and Treatment: […] Cells were treated for 48 h prior to assay. […] Sample population for at each dose was n=8. Alkaline Phosphatase Assay: […] Plates are placed at -80° C. for a minimum of 15 minutes. Plates are thawed at 37° C. followed by the addition of 150 μL of 0.1 M Tris-HCl, pH 9.8, containing 4 mM para-nitrophenylphosphate (pNPP) to each well (final concentration, 3 mM pNPP). Absorbance and slope calculations were made using the […] Application program (Bio-Tek Instruments, Inc., Winooski, VT.). […] Various compounds were assayed for estrogenic activity by the alkaline phosphatase method and corresponding ED50 values (95% C.I.) were calculated. The four listed in the following were used as as reference standards: A description of these methods is described by Holinka, […]., Kuramoto, H. and Gurpide, E. (1986) Effects of steroid hormones and antisteroids on alkaline phosphatase activity in human endometrial cancer cells (Ishikawa Line). Cancer Research, 46:2771-2774, and by […]. and […] simple and sensitive microtiter plate estrogen bioassay based on stimulation alkaline phosphatase in Ishikawa cells; […] Endocrinology, 6:2757-2762.

[1] = system: uterus wet weight, immature Sprague-Dawley rats; assay: Rat Uterotrophic/Antiuterotrophic Bioassay; type: in vivo; conditions: day 4; for uterine wet weight, 10 μG: 10 uG compound daily ip; for uterine wet weight, 10 μG / uterine wet weight, 100 μG / uterine wet weight, 100 μG + 1 μG 17β-estradiol: immature female rats; for uterine wet weight, 100 μG: 100 uG compound daily ip; for uterine wet weight, 100 μG + 1 μG 17β-estradiol: 100 uG compound + 1 uG 17β-estradiol daily ip
Protocol: Rat Uterotrophic/Antiuterotrophic Bioassay The estrogenic and antiestrogenic properties of the compounds were determined in an immature rat uterotrophic assay (4 day) that (as described previously by L. J. Black and R. L. Goode, Life Sciences, 26, 1453 (1980)). Immature Sprague-Dawley rats (female, 18 days old) were tested in groups of six. […] A small section of one horn was submitted for histology and the remainder used to isolate total RNA in order to evaluate complement component 3 gene expression.

estrogen receptor = target: T1, estrogen receptor (Homo sapiens, UniProt P03372); assay: In Vitro Estrogen Receptor Binding Assay ([3H]-17β-estradiol competition); conditions: RBA: 17β-estradiol=100; cytosol of CHO cells overexpressing the estrogen receptor
T1 construct: expressed in transfected cells; host or cells: CHO cells, ribosome-free cytosol
T1 sequence (P03372 1-595): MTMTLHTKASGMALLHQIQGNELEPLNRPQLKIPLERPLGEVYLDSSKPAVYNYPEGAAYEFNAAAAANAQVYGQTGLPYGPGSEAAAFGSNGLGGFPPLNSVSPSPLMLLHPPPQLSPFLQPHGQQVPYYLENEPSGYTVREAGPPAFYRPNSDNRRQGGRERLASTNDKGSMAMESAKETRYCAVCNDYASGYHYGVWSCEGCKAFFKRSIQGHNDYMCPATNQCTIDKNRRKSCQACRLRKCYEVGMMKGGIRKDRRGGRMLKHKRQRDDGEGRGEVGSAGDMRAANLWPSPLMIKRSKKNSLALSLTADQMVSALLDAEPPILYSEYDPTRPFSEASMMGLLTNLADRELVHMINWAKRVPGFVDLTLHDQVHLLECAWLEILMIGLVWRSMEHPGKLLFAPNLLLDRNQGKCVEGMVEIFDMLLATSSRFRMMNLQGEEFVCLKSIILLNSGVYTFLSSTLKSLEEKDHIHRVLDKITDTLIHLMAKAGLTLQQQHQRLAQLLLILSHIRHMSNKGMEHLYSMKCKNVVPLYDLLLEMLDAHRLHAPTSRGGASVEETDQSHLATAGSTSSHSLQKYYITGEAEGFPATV

| Compound | melting point [°C] | % Activation (Ishikawa cells) [%] | uterine wet weight, 10 μG [1] [mg] | uterine wet weight, 100 μG [1] [mg] | Estrogen Receptor Affinity (RBA) (estrogen receptor) | uterine wet weight, 100 μG + 1 μG 17β-estradiol [1] [mg] | uterine wet weight, 1 μG 17β-estradiol ([1]; 1 uG 17β-estradiol daily ip, positive control of each experiment) |
| --- | --- | --- | --- | --- | --- | --- | --- |
| Cc1c(-c2ccc(O)cc2)n(Cc2ccc(C#CCN3CCCC3)cc2)c2ccc(O)cc12 | 174 to 176 | – | – | – | – | – | – |
| O=C(c1ccc(OCCN2CCCCC2)cc1)c1c(-c2ccc(O)cc2)sc2cc(O)ccc12 [Raloxifene] | – | 5 | 47.5 | 43.2 | – | – | – |
| Cc1c(-c2ccc(O)cc2)n(Cc2ccc(C#CCN(C)C)cc2)c2ccc(O)cc12 [Example 4, 2-(4-Hydroxy-phenyl)-3-methyl-1-[4-(3-N,N-dimethyl-1-yl-prop-1-ynyl)-benzyl]-1H-indol-5-ol] | – | – | 56.0 | 84.0 | 53 | 77.6 | – |
| C[C@]12CC[C@@H]3c4ccc(O)cc4CC[C@H]3[C@@H]1CC[C@@H]2O [17β-estradiol] | – | – | – | – | – | – | 1 μG 17β-estradiol = 98.2 mg and 1 μG 17β-estradiol = 90.2 mg and 1 μg 17β-estradiol = 82.8 mg |
| CC/C(=C(\c1ccccc1)c1ccc(OCCN(C)C)cc1)c1ccccc1 [Tamoxifen] | – | 0 | 69.6 | 71.4 | – | – | – |
| Cc1c(-c2ccc(O)cc2)n(Cc2ccc(C#CCN3CCCCC3)cc2)c2ccc(O)cc12 [Example 5, 2-(4-Hydroxy-phenyl)-3-methyl-1-[4-(3-piperidin-1-yl-prop-1-vinyl)-benzyl]-1H-indol-5-ol] | – | – | 55.6 | 71.3 | 23 | 66.8 | – |
